Test results taken from paper PMC8840081, “Phenylalanine-Based AMPA Receptor Antagonist as the Anticonvulsant Agent with Neuroprotective Activity—In Vitro and In Vivo Studies” (Molecules, 2022).
Values joined by “and” are separate entries in the source; they are usually repeats but may differ in a detail not shown here. Equal entries are not always repeated.

Assays:
[1] = test system: SH-SY5Y neuroblastoma cells; assay: cell viability, MTS assay; format: cell-based, human; settings: 24 h incubation, 1–100 µM
Description: (§1) All cell culture protocols and assay conditions were applied as we reported previously. SH-SY5Y (ATCC® CRL-2266™) cell line was purchased from ATCC (Manassas, VA, USA). IMR-32 (ATCC® CCL-127™) cell line was kindly provided by the Department of Oncogenomics, Academisch Medisch Centrum, Amsterdam, Holland. Before each test SH-SY5Y or IMR-32 cells were seeded in 96-well plates with transparent bottom at a concentration of 2.5 × 10^4 cells/well in 100 μL of respective cell culture medium and cultured for 24 h to reach 70% confluence. • Cell Viability
(§2) The CellTiter 96® AQueous Non-Radioactive Cell Proliferation Assay was purchased from Promega (Madison, WI, USA). After 24 h of cells incubation with compound 1 or 8 in the concentrations range 1–100 µM the MTS-based labeling mixture was added to each well and cells were incubated under the same conditions for 2–3 h. The absorbance was measured using a microplate reader EnSpire (PerkinElmer, Waltham, MA, USA) at 490 nm. All measurements were performed in triplicate and results are shown as mean ± SD. • Lactate Dehydrogenase Test

[2] = test system: IMR-32 neuroblastoma cells; assay: cell viability, MTS assay; format: cell-based, human; settings: IMR-32, 24 h incubation, 1–100 µM
Description: as §1, §2

[3] = ferric reducing antioxidant power (FRAP) assay; settings: % of ascorbic acid activity; compounds and AA at 1 mM
Description: The total antioxidant potential of aryl-substituted phenylalanine derivatives was determined using FRAP assay. The FRAP reagent was prepared first by mixing acetate buffer (300 mM, pH 3.6), a solution of 10 mM TPTZ (2,4,6-tripyridyl-s-triazine, Sigma-Aldrich, Inc., St. Louis, MO, USA) in 40 mM HCl and 20 mM of iron (III) chloride hexahydrate (FeCl3 × 6H2O, Chempur, Piekary Śląskie, Poland) at 10:1:1 (v/v/v). The FRAP reagent (190 μL) and 1 mM of tested compound (10 μL) was added next to each well, mixed and incubated for 30 min. The absorbance was measured using a microplate reader EnSpire (PerkinElmer, Waltham, MA USA) at 593 nm. AA (1 mM, AMARA, Kraków, Poland) was used as the reference antioxidant. The results were expressed as % of ascorbic acid activity (%AAA). Analyses were performed in triplicate. • ORAC-FL

[4] = test system: tactile allodynia in diabetic mice; assay: diabetic (STZ) neuropathic pain model, von Frey test; format: in vivo; settings: 30 mg/kg i.p.
Description: Behavioral experiments were carried out in male Albino Swiss (CD-1) mice weighing 18–22 g. The mice were kept in cages, in groups of 10 animals. They had free access to food and water before experiments, and were maintained at room temperature 22–24 °C, under 12:12 (light/dark) cycle. For the assays the animals were selected randomly. After the experiments the animals were euthanized by cervical dislocation. […]
To induce type I diabetes and diabetic neuropathic pain, mice were administered STZ, an alkylating antitumor drug that destroys insulin-secreting islet cells. […] Blood glucose levels were measured 1 day before (referred to as ‘day 0′) and repeatedly 1, 2 and 3 weeks after STZ injection using a blood glucose monitoring system (AccuChek Active, Roche, France). […]
The electronic von Frey unit (Bioseb, France) is supplied with a single flexible filament applying increasing force (from 0 to 10 g) against the plantar surface of the hind paw. In this assay the nocifensive paw withdrawal response automatically turns off the stimulus and the mechanical pressure that evoked the response was recorded. […]

[5] = test system: tactile allodynia in oxaliplatin-treated mice; assay: oxaliplatin-induced neuropathic pain model, von Frey test; format: in vivo; settings: 10 and 30 mg/kg i.p., early and late phase
Description: (§3) Behavioral experiments were carried out in male Albino Swiss (CD-1) mice weighing 18–22 g. The mice were kept in cages, in groups of 10 animals. They had free access to food and water before experiments, and were maintained at room temperature 22–24 °C, under 12:12 (light/dark) cycle. For the assays the animals were selected randomly. After the experiments the animals were euthanized by cervical dislocation. Experimental procedures for in vivo tests were approved by the Local Ethics Committee of the Jagiellonian University in Krakow (Approval No. 33/2018; release date: 1.02.2018) and the treatment of animals was performed in full accordance with ethical standards laid down in respective Polish and EU regulations (Directive 2010/63/EU).
(§4) Oxaliplatin was purchased from Activate Scientific GmbH (Prien, Germany). PTZ and STZ were provided by Merck KGaA (Darmstadt, Germany). For the in vivo tests, the compound 1 was suspended in 1% Tween 80 solution (Polskie Odczynniki Chemiczne, Gliwice, Poland), then being administered intraperitoneally 1 h before tests. For the evaluation of anticonvulsant properties of the test compound, a fixed dose of 100 mg/kg, was used. Since many AEDs at lower doses are used as analgesic drugs, for pain tests the doses 10 and 30 mg/kg were selected. […]

[6] = test system: cold hyperalgesia in oxaliplatin-treated mice; assay: oxaliplatin-induced neuropathic pain model, cold plate test; format: in vivo; settings: 10 and 30 mg/kg i.p., early and late phase
Description: as §3, §4
The effect of 1 on cold pain threshold was assessed using the cold plate test. […]

[7] = test system: SH-SY5Y cells; assay: ROS assay (DCFH-DA), H2O2-induced ROS accumulation; format: cell-based, human; settings: compound 50 µM, 500 µM H2O2, 3 h
Description: as §1
During this assay SH-SY5Y cells were preincubated first for 1 h with 250 μM solution of DCFH-DA (Sigma-Aldrich, Inc., St. Louis, MO, USA) in HBSS buffer. After DCFH-DA was removed, cells were washed with HBSS and incubated next for 1 h with 50 μM of compound 1 or 8. Next, the H2O2 was added at final concentration 500 μM. After 3 h of incubation, the fluorescence was measured using a microplate reader EnSpire (PerkinElmer, Waltham, MA, USA) with an excitation wavelength of 486 nm and emission wavelength of 530 nm. All measurements were performed in triplicate and results are shown as mean ± SD.

In the case of NC(Cc1cc(-c2cc(O)ccc2O)c(Cl)c([N+](=O)[O-])c1)C(=O)O (stereo not shown) [Compound 1], the cell viability [1] is reported as “no influence on cell viability”, the cell viability [2] is reported as “no influence on cell viability” and the “FRAP (%AAA)” value [3] is reported as 748.5 %AAA and 748.49 %AAA. The “antiallodynic activity, von Frey test” value [4] was “not able to attenuate tactile allodynia”, the “effect on tactile allodynia, von Frey test” value [5] was “not effective” and the “effect on cold hyperalgesia, cold plate test” value [6] was “unable to attenuate cold hyperalgesia”. For the same compound, the “intracellular ROS level” value [7] was “statistically significant decrease”.
